Tests used:
Aphanomyces euteiches = experiment: Potted plant trial, field pea, 2× rate of Aphanomyces infection (Example 2); settings: ipconazole 2.5, carboxin 66.7, metalaxyl 6.7 g ai/100 kg, combination 500 ml/100 kg; for Root rot damage: 29 DAP
Method: The control consisted of seed inoculated with Aphanomyces and used water as the seed treatment. The experiment was performed in a controlled environment growth cabinet.
Culture: A 3-day old culture of Aphanomyces euteiches (3 days is when growth has fully encompassed plate) was used for 5 mm inoculation plug source (each plate received one 5 mm plug and four seeds)×4 reps.
Experimental design: 4 reps of each treatment (including controls), with each replication represented by 5 planted seeds for a total of 20 seeds per treatment were performed. All treatments received inoculum. Each seed is placed in a solitary location of a plant tray/flat that has 50 plugs per flat. One flat contained 2 treatments, separated by 10 plugs (2 rows of 5). Treatments 1 and 6 (controls) shared the same flat. The plug flats were placed in a collection tray that was not perforated and all watering was done with tap water from bottom up.
Culture media: 3 day old cultures of A. euteiches were grown on CYP (corn meal agar+yeast extract+phosphate buffer), amended with wheat leaf sections were transferred to 100 ml sterile distilled water in 250 ml flasks and shaken at 100 rpm in the dark at 23° C. for 18 hours for zoospore production.
Inducing Aphanomyces infection: Zoospores were counted and adjusted to a concentration of 1×10^4 spores, and 5 mls of this suspension was pipetted to the base of each plant on 4 DAP and again on 11 DAP (days after planting). This amounted to 50000 zoospores applied to the base of each plant at each inoculation timing. This was called 2× rate. The experiment was conducted in a growth cabinet at 23° C./22° C., 16 hrs light/8 hours dak.-root washing/rating of root darkening took place at 29 DAP which was 18 days after the second inoculation event or 25 days after the first inoculation event.

[1] = system: Mycosphaerella pinodes and Ascochyta pinodella; experiment: Potted plant trial, pea, stem damage from seed borne root rot / ascochyta blight; settings: ipconazole 2.5, carboxin 66.7, metalaxyl 6.7 g ai/100 kg, combination 500 ml/100 kg

Structure (SMILES) | Root rot damage (Aphanomyces euteiches) | Plant height (cm) (Aphanomyces euteiches) | Seed emergence (%) (Aphanomyces euteiches) | Stem damage [1]
CC1=C(C(=O)Nc2ccccc2)SCCO1 [Carboxin] | 0.6 bc 0-5 index/scale | 12.9 cm | 80.0% | 1.8 a 0-3 index/scale
CC(C)C1CCC(Cc2ccc(Cl)cc2)C1(O)Cn1cncn1 (stereo not shown) [Ipconazole] | 2.2 a 0-5 index/scale | 12.3 cm | 85.0% | –
COCC(=O)N(c1c(C)cccc1C)C(C)C(=O)OC (stereo not shown) [Metalaxyl] | 0.7 bc 0-5 index/scale | 12.2 cm | 80.0% | –
